Numbers after ± are expanded uncertainties.
Settings: Crystal; DTA

Row | Normal melting temperature [°C] | Structure (SMILES)
1 | 801.1 ± 4 | [Cl-].[Na+] [sodium chloride]
2 | 771.1 ± 4 | [Cl-].[K+] [potassium chloride]

Reference: the NIST ThermoML archive (doi:10.1016/j.tca.2015.03.003)
